For 29 compounds, IC50 results are on record in patent US12378224B2 (Dong-A Socio Holdings Co., Ltd., priority 2016, dated 2025).

Some results are limits rather than exact numbers.

In general, IC50 refers to the concentration that gives 50% inhibition. A lower IC50 goes with inhibition by little substance.

Chain of human c-MER catalytic domain (Q12866 587-858): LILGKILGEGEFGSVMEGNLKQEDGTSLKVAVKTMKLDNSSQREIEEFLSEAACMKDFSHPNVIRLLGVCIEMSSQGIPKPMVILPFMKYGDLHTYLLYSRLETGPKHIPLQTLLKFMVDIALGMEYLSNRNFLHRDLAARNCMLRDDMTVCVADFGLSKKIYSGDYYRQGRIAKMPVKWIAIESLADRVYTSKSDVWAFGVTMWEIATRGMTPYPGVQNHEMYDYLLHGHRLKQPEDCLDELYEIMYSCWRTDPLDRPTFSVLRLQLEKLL

The assay concerns the target human c-MER catalytic domain (Homo sapiens (Human), UniProt Q12866). As to the kind of experiment: TR-FRET Kinase Activity Biochemical Assay (LanthaScreen). The conditions noted are these: 10 uM ATP, 1 hour, kinase not given. An outline of the steps:
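Recombinant human c-MER catalytic domain phosphorylated fluorescein-labeled poly-GT substrate. The reaction was stopped with 10 mM EDTA, then 2 nM Tb-labeled anti-phosphotyrosine antibody was added for 30 min. Kinase activity was taken from the 495/520 nm TR-FRET emission ratio after 340 nm excitation.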
In general terms: TR-FRET usually uses a lanthanide donor and a delayed reading to cut background.
`Cn1cc(-c2cnc(N)c(C(=O)N[C@@H]3CCN(C(=O)Oc4cccc(-c5ccc(CN6CCCCC6)cc5)c4)C3)c2)cn1` [Example 334, 4′-(piperidin-1-ylmethyl)-[1,1′-biphenyl]-3-yl (R)-3-(2-amino-5-(1-methyl-1H-pyrazol-4-yl)nicotinamido)pyrrolidine-1-carboxylate] displayed an IC50 of 100 to 1000 nM. Consider `CC(=O)N1CCC(n2cc(-c3cnc(N)c(C(=O)N[C@@H]4CCN(Cc5ccccc5)C4)c3)cn2)CC1` [Example 240, (R)-5-(1-(1-acetylpiperidin-4-yl)-1H-pyrazol-4-yl)-2-amino-N-(1-benzylpyrrolidin-3-yl)nicotinamide], for which the half-maximal inhibitory concentration (IC50) lay in the range of 100 to 1000 nM. The compound `Cn1cc(-c2cnc(N)c(C(=O)N[C@@H]3CCN(c4ncc([N+](=O)[O-])s4)C3)c2)cn1` [Example 138, (R)-2-amino-5-(1-methyl-1H-pyrazol-4-yl)-N-(1-(5-nitrothiazol-2-yl)pyrrolidin-3-yl)nicotinamide] showed a half-inhibitory concentration (IC50) greater than 1000 nM. In the case of `Cn1cc(-c2cnc(N)c(C(=O)N[C@@H]3CCN(Cc4cc(Cl)cc(Cl)c4O)C3)c2)cn1` [Example 223, (R)-2-amino-N-(1-(3,5-dichloro-2-hydroxybenzyl)pyrrolidin-3-yl)-5-(1-methyl-1H-pyrazol-4-yl)nicotinamide], the half-maximal inhibitory concentration (IC50) lay in the range of 100 to 1000 nM. Then `Cn1cc(-c2cnc(N)c(C(=O)N[C@@H]3CCN(C(=O)Oc4cccc(-c5ccc(CN6CC[C@@H](N)C6)cc5)c4)C3)c2)cn1` [Example 330, 4′-(((R)-3-aminopyrrolidin-1-yl)methyl)-[1,1′-biphenyl]-3-yl (R)-3-(2-amino-5-(1-methyl-1H-pyrazol-4-yl)nicotinamido)pyrrolidine-1-carboxylate], with 10 to 100 nM.

With `Cn1cc(-c2cnc(N)c(C(=O)N[C@@H]3CCN(C(=O)c4cccc(-c5ccc6c(c5)NC(=O)C6=O)c4)C3)c2)cn1` [Example 495, (R)-2-amino-N-(1-(3-(2,3-dioxoindolin-6-yl)benzoyl)pyrrolidin-3-yl)-5-(1-methyl-1H-pyrazol-4-yl)nicotinamide], the IC50 is greater than 1000 nM. For `Nc1ncccc1C(=O)N[C@@H]1CCN(C(=O)c2ccc(-c3ccc(F)cc3Cl)cc2)C1` [Example 579, (R)-2-amino-N-(1-(2′-chloro-4′-fluoro-[1,1′-biphenyl]-4-carbonyl)pyrrolidin-3-yl)nicotinamide] the value was 10 to 100 nM; for `Cn1cc(-c2cnc(N)c(C(=O)N[C@@H]3CCN(C(=O)Oc4cccc(-c5cccc(CN6CC[C@@H](N)C6)c5)c4)C3)c2)cn1` [Example 336, 3′-(((R)-3-aminopyrrolidin-1-yl)methyl)-[1,1′-biphenyl]-3-yl (R)-3-(2-amino-5-(1-methyl-1H-pyrazol-4-yl)nicotinamido)pyrrolidine-1-carboxylate], 100 to 1000 nM. For `Cn1cc(-c2cnc(N)c(C(=O)N[C@@H]3CCN(C(=O)O[C@H]4CCC[C@@H]4OCc4ccccc4)C3)c2)cn1` [Example 120, (1S,2S)-2-(benzyloxy)cyclopentyl (R)-3-(2-amino-5-(1-methyl-1H-pyrazol-4-yl)nicotinamido)pyrrolidine-1-carboxylate] the value was greater than 1000 nM; for `Cn1cc(-c2cnc(N)c(C(=O)N[C@@H]3CCN(C(=O)OC4CCN(c5ccccc5)C4)C3)c2)cn1` (stereo partly drawn) [Example 126, 1-phenylpyrrolidin-3-yl (3R)-3-(2-amino-5-(1-methyl-1H-pyrazol-4-yl)nicotinamido)pyrrolidine-1-carboxylate], greater than 1000 nM; for `CCOC(=O)C1CN(C(=O)c2ccc(-c3ccccc3)cc2)CC1NC(=O)c1cc(-c2cnn(C)c2)cnc1N` (centres unmarked) [Example 687, ethyl 1-([1,1′-biphenyl]-4-carbonyl)-4-(2-amino-5-(1-methyl-1H-pyrazol-4-yl)nicotinamido)pyrrolidine-3-carboxylate], greater than 1000 nM.

`CN1CCN(Cc2cccc(-c3ccc(NC(=O)N4CC[C@@H](NC(=O)c5cc(-c6cnn(C)c6)cnc5N)C4)cc3)c2)CC1` [Example 272, (R)-2-amino-5-(1-methyl-1H-pyrazol-4-yl)-N-(1-((3′-((4-methylpiperazin-1-yl)methyl)-[1,1′-biphenyl]-4-yl)carbamoyl)pyrrolidin-3-yl)nicotinamide] yielded a 50% inhibitory concentration (IC50) of 100 to 1000 nM. For `Cn1cc(-c2cnc(N)c(C(=O)N[C@@H]3CCN(C(=O)Oc4cc(Cl)cc(-c5ccc(CO)cc5)c4)C3)c2)cn1` [Example 291, 5-chloro-4′-(hydroxymethyl)-[1,1′-biphenyl]-3-yl (R)-3-(2-amino-5-(1-methyl-1H-pyrazol-4-yl)nicotinamido)pyrrolidine-1-carboxylate] the value was 10 to 100 nM; for `Cc1ccc(N2CC[C@@H](NC(=O)c3cc(-c4cnn(C)c4)cnc3N)C2)cc1` [Example 134, (R)-2-amino-5-(1-methyl-1H-pyrazol-4-yl)-N-(1-(p-tolyl)pyrrolidin-3-yl)nicotinamide], greater than 1000 nM. For the compound `Nc1ncc(-c2ccc(C(=O)NCCCN3CCCC3=O)cc2)cc1C(=O)N[C@@H]1CCN(C(=O)c2ccc(-c3ccccc3Cl)cc2)C1` [Example 595, (R)-2-amino-N-(1-(2′-chloro-[1,1′-biphenyl]-4-carbonyl)pyrrolidin-3-yl)-5-(4-((3-(2-oxopyrrolidin-1-yl)propyl)carbamoyl)phenyl)nicotinamide], the 50% inhibitory concentration (IC50) lay within 10 to 100 nM. `CC(c1cccc(Cl)c1)N1CC[C@@H](NC(=O)c2cc(-c3cnn(C4CCNCC4)c3)cnc2N)C1` (stereo partly drawn) [Example 149, 2-amino-N-((3R)-1-(1-(3-chlorophenyl)ethyl)pyrrolidin-3-yl)-5-(1-(piperidin-4-yl)-1H-pyrazol-4-yl)nicotinamide] showed a concentration for half-maximal inhibition (IC50) of 100 to 1000 nM.

`N#Cc1ccc(-c2cnc(N)c(C(=O)N[C@@H]3CCN(Cc4ccc(Cl)cc4)C3)c2)cc1` [Example 238, (R)-2-amino-N-(1-(4-chlorobenzyl)pyrrolidin-3-yl)-5-(4-cyanophenyl)nicotinamide] registered an IC50 greater than 1000 nM. Then `Cn1cc(-c2cnc(N)c(C(=O)N[C@@H]3CCN(C(=O)c4cccc(-c5ccoc5)c4)C3)c2)cn1` [Example 468, (R)-2-amino-N-(1-(3-(furan-3-yl)benzoyl)pyrrolidin-3-yl)-5-(1-methyl-1H-pyrazol-4-yl)nicotinamide], with greater than 1000 nM; and `CSc1ccc(-c2ccc(C(=O)N3CC[C@@H](NC(=O)c4cc(-c5cnn(C)c5)cnc4N)C3)cc2)cc1` [Example 665, (R)-2-amino-5-(1-methyl-1H-pyrazol-4-yl)-N-(1-(4′-(methylthio)-[1,1′-biphenyl]-4-carbonyl)pyrrolidin-3-yl)nicotinamide], with 100 to 1000 nM; and `Cn1cc(-c2cnc(N)c(C(=O)N[C@@H]3CCN(C(=O)OC4CCC(c5ccccc5)C4)C3)c2)cn1` (stereo partly drawn) [Example 121, 3-phenylcyclopentyl (3R)-3-(2-amino-5-(1-methyl-1H-pyrazol-4-yl)nicotinamido)pyrrolidine-1-carboxylate], with 100 to 1000 nM.

For `CC(C)(c1ccc(-c2cnc(N)c(C(=O)N[C@@H]3CCN(C(=O)c4ccc(-c5ccccc5)cc4)C3)c2)cc1)N1CCNCC1` [Example 564, (R)—N-(1-([1,1′-biphenyl]-4-carbonyl)pyrrolidin-3-yl)-2-amino-5-(4-(2-(piperazin-1-yl)propan-2-yl)phenyl)nicotinamide], the half-maximal inhibitory concentration (IC50) is less than 10 nM.

`CN1CCN(Cc2ccc(-c3cnc(N)c(C(=O)N[C@@H]4CCN(C(=O)Oc5cccc(-c6ccccc6)c5)C4)c3)cc2)CC1` [Example 82, [1,1′-biphenyl]-3-yl (R)-3-(2-amino-5-(4-((4-methylpiperazin-1-yl)methyl)phenyl)nicotinamido)pyrrolidine-1-carboxylate]: the concentration for half-maximal inhibition (IC50) was 10 to 100 nM. `CN1CCN(Cc2ccc(-c3cc(CN4CC[C@@H](NC(=O)c5cc(-c6cnn(C)c6)cnc5N)C4)ccc3F)cc2)CC1` [Example 633, (R)-2-amino-N-(1-((6-fluoro-4′-((4-methylpiperazin-1-yl)methyl)-[1,1′-biphenyl]-3-yl)methyl)pyrrolidin-3-yl)-5-(1-methyl-1H-pyrazol-4-yl)nicotinamide]: the IC50 lay in the range of 100 to 1000 nM.

In turn, `Nc1ncc(-c2ccc(C(=O)N3CCOCC3)cc2)cc1C(=O)N[C@@H]1CCN(C(=O)Nc2cc(Cl)cc(Cl)c2)C1` [Example 9, (R)-2-amino-N-(1-((3,5-dichlorophenyl)carbamoyl)pyrrolidin-3-yl)-5-(4-(morpholine-4-carbonyl)phenyl)nicotinamide] returned an IC50 of 10 to 100 nM.

`Cn1cc(-c2cnc(N)c(C(=O)N[C@@H]3CCN(C(=O)Cc4cccc(Br)c4)C3)c2)cn1` [Example 421, (R)-2-amino-N-(1-(2-(3-bromophenyl)acetyl)pyrrolidin-3-yl)-5-(1-methyl-1H-pyrazol-4-yl)nicotinamide] came in with a concentration for half-maximal inhibition (IC50) greater than 1000 nM. `C=Cc1ccc(C(=O)N2CC[C@@H](NC(=O)c3cc(-c4cnn(C)c4)cnc3N)C2)cc1` [Example 417, (R)-2-amino-5-(1-methyl-1H-pyrazol-4-yl)-N-(1-(4-vinylbenzoyl)pyrrolidin-3-yl)nicotinamide] came in with an IC50 of 100 to 1000 nM.

The compound `Cn1cc(-c2cnc(N)c(C(=O)N[C@@H]3CCN(C(=O)Oc4cccc(-c5ccc(CCC(=O)O)cc5)c4)C3)c2)cn1` [Example 276, (R)-3-(3′-((3-(2-amino-5-(1-methyl-1H-pyrazol-4-yl)nicotinamido)pyrrolidine-1-carbonyl)oxy)-[1,1′-biphenyl]-4-yl) propanoic acid] showed an IC50 of 100 to 1000 nM. For `CN1CCN(Cc2ccc(-c3cnc(N)c(C(=O)N[C@@H]4CCN(Cc5ccc(Cl)cc5)C4)c3)cc2)CC1` [Example 236, (R)-2-amino-N-(1-(4-chlorobenzyl)pyrrolidin-3-yl)-5-(4-((4-methylpiperazin-1-yl)methyl)phenyl)nicotinamide] the value was 100 to 1000 nM; for `Cc1onc(-c2ccccc2)c1C(=O)N1CC[C@@H](NC(=O)c2cc(-c3cnn(C)c3)cnc2N)C1` [Example 500, (R)-2-amino-5-(1-methyl-1H-pyrazol-4-yl)-N-(1-(5-methyl-3-phenylisoxazole-4-carbonyl)pyrrolidin-3-yl)nicotinamide], greater than 1000 nM.
